Assay results taken from patent US20150141435A1, “2-PYRIDONE ANTIMICROBIAL COMPOSITIONS” (Emergent BioSolutions, priority 2010, published 2015).
Converted amounts (≈) assume the structure as drawn. Structures can show the parent of a compound that is named as a salt. Where two headings read alike, the source gives them in different places.

Test system: bacterial pathogens resistant against quinolones antibiotics
Test: MIC against quinolone-resistant bacterial pathogens (Table 5)
Type: cell-based
[1] = Enterococcus faecalis, read-out: MICs, Enterococcus faecalis vancomycin-resistant (VanB) clinical isolate, GP14
[2] = Enterococcus faecium, read-out: MICs, Enterococcus faecium vancomycin-resistant (VanA) clinical isolate, GP17
[3] = Escherichia coli, GN03, read-out: MICs, Escherichia coli multi-drug resistant clinical isolate, GN03
[4] = Providencia stuartii, GN24, read-out: MICs, Providencia stuartii multi-drug resistant clinical isolate, GN24
[5] = Pseudomonas aeruginosa, GN64, read-out: MICs, Pseudomonas aeruginosa levofloxacin-resistant clinical isolate, GN64
[6] = Staphylococcus aureus, MRSA, read-out: MICs, EMRSA16 Staphylococcus aureus (MRSA) SSCmec type 2, GP33
[7] = Staphylococcus aureus, read-out: MICs, Staphylococcus aureus levofloxacin-resistant clinical isolate, amino acid changes GrlA, GrlB & GyrA, GP82
[8] = Staphylococcus aureus, read-out: MICs, Staphylococcus aureus multi-drug-resistant clinical isolate, GP5
[9] = Streptococcus pneumoniae, read-out: MICs, Streptococcus pneumoniae multi-drug resistant clinical isolate, GP24
[10] = read-out: MICs, Acinetobacter haumannii levofloxacin-resistant clinical isolate, GN54

SMILES | MIC [1] | MIC [2] | MIC [3] | MIC [4] | MIC [5] | MIC [6] | MIC [7] | MIC [8] | MIC [9] | MIC [10] | MIC (Acinetobacter haumannii levofloxacin-resistant clinical isolate, GN54, read-out: MICs) | MIC (EMRSA16 Staphylococcus aureus (MRSA) SSCmec type 2, GP33, read-out: MICs) | MIC (Enterococcus faecalis vancomycin-resistant (VanB) clinical isolate, GP14, read-out: MICs) | MIC (Enterococcus faecium vancomycin-resistant (VanA) clinical isolate, GP17, read-out: MICs) | MIC (Escherichia coli multi-drug resistant clinical isolate, GN03, read-out: MICs) | MIC (Providencia stuartii multi-drug resistant clinical isolate, GN24, read-out: MICs) | MIC (Pseudomonas aeruginosa levofloxacin-resistant clinical isolate, GN64, read-out: MICs) | MIC (Staphylococcus aureus multi-drug-resistant clinical isolate, GP5, read-out: MICs) | MIC (Streptococcus pneumoniae multi-drug resistant clinical isolate, GP24, read-out: MICs)
Cc1c(-c2cc(F)c(N)cc2F)ccn2c(=O)c(C(=O)O)cc(C3CC3)c12 [Example 28 K salt, 8-(4-amino-2,5-difluoro-phenyl)-1-cyclopropyl-9-methyl-4-oxo-4H-quinolizine-3-carboxylic acid] | 0.25 µg/mL | 1 µg/mL | 16 µg/mL | 1 µg/mL | 4 µg/mL | 0.06 µg/mL | 0.03 µg/mL | 0.06 µg/mL | 0.06 µg/mL | 2 µg/mL |  |  |  |  |  |  |  |  | 
Cc1c(-c2ccc(N)nc2)ccn2c(=O)c(C(=O)O)cc(C3CC3)c12 [Example 21 K salt, 8-(6-amino-pyridin-3-yl)-1-cyclopropyl-9-methyl-4-oxo-4H-quinolizine-3-carboxylic acid] | 1 µg/mL | 4 µg/mL | 16 µg/mL | 2 µg/mL | 4 µg/mL | 0.25 µg/mL | 0.12 µg/mL | 0.25 µg/mL | 0.12 µg/mL | 4 µg/mL |  |  |  |  |  |  |  |  | 
C[C@H]1COc2c(N3CCN(C)CC3)c(F)cc3c(=O)c(C(=O)O)cn1c23 [Levofloxacin] |  |  |  |  |  |  | 8 µg/mL (≈ 22.1 µM) |  |  |  | ≥ 16 µg/mL | ≥ 16 µg/mL | ≥ 16 µg/mL | ≥ 16 µg/mL | ≥ 16 µg/mL | ≥ 16 µg/mL | ≥ 16 µg/mL | ≥ 16 µg/mL | 2 µg/mL (≈ 5.53 µM)
Cc1c(-c2ccc3[nH]ncc3c2)ccn2c(=O)c(C(=O)O)cc(C3CC3)c12 [Example 23 K salt, 1-cyclopropyl-8-(1H-indazol-5-yl)-9-methyl-4-oxo-4H-quinolizine-3-carboxylic acid] | 0.25 µg/mL | 0.5 µg/mL | 4 µg/mL | 1 µg/mL | 2 µg/mL | 0.03 µg/mL |  | 0.03 µg/mL | 0.03 µg/mL | 1 µg/mL |  |  |  |  |  |  |  |  | 
Cc1c(-c2ccc(O)cc2)ccn2c(=O)c(C(=O)O)cc(C3CC3)c12 [Example 46 K salt, 1-cyclopropyl-8-(4-hydroxy-phenyl)-9-methyl-4-oxo-4H-quinolizine-3-carboxylic acid] | 0.5 µg/mL | 1 µg/mL | 8 µg/mL | 2 µg/mL | 4 µg/mL | 0.06 µg/mL | 0.03 µg/mL | 0.06 µg/mL | 0.12 µg/mL | 2 µg/mL |  |  |  |  |  |  |  |  | 
Cc1c(-c2ccc(N)c(F)c2)ccn2c(=O)c(C(=O)O)cc(C3CC3)c12 [Example 2 K salt, 8-(4-amino-3-fluoro-phenyl)-1-cyclopropyl-9-methyl-4-oxo-4H-quinolizine-3-carboxylic acid] | 0.5 µg/mL | 2 µg/mL |  | 1 µg/mL | 2 µg/mL | 0.12 µg/mL | 0.06 µg/mL | 0.06 µg/mL | 0.12 µg/mL | 2 µg/mL |  |  |  |  |  |  |  |  | 
